From patent US20220218714A1, “METHOD OF TREATING CANCER” (Epizyme, Inc., priority 2013, published 2022) come the findings set out here.

For one experiment, the system named is SW982 cells. Conditions: SW982 in vitro culture.
The next experiment deals with HS-SY-II xenograft. Description: Gene expression changes in vivo in HS-SY-II xenograft model (RT-PCR). Conditions: 500 mg/kg oral twice daily for 7 days; 3 hours after last dose. Further details: species or system mice. The method, then: (§1) Tumor samples were collected at approximately 3 hours after the last dose from mice used in analysis for PK values and PD alterations. The tumor samples were stored using RNAlater (AM7020, Life technologies). Total RNA isolation and the reverse transcription were performed by RNeasy Mini Kit (74104, Qiagen) and High capacity cDNA Reverse Transcription kit (4368814, Life technologies) according to the manufacturer's instruction. The cDNA samples were used for real time-PCR as described above.
as §1, with “above. […] Additionally or alternatively, total RNAs were isolated from frozen tumor samples. The TruSeq' RNA Sample Prep Kit (Illumina) was used to build cDNA library for paired-end sequencing on the Illumina HiSeq (details described in Illumina TruSeq RNA Sample Preparation Guide). […] Paired-end reads from ˜50M clusters per sample were generated using TruSeq SBS kit on the Illumina HiSeq.” for “above.”

The test system of experiment [1] is PDX of synovial sarcoma tumors. The experiment in a line: Tumor volume in patient-derived xenografts (PDX) of synovial sarcoma, 35 days dosing. Type of experiment: in vivo, athymic nude mice. As to conditions: two synovial sarcoma PDX; oral 125, 250 or 500/400 mg/kg for 35 days. As for the experimental part: FIGS. 11A and 11C show mean in vivo tumor volumes for athymic nude mice bearing one of two different PDX of synovial sarcoma tumors. FIGS. 11B and 11D show percent survival for mice bearing a PDX. Mice were dosed with either vehicle (oral for 35 days), Compound A (oral: 125 mg/kg, 250 mg/kg, or 500/400 mg/kg for 35 days) or Doxorubicin (iv: 3 mg/kg, once a week for 3 weeks). FIGS. 11A and 11B show data from mice bearing PDX from high-grade spindle cell sarcoma. FIGS. 11C and 11D show data from mice bearing PDX.
Background: In xenograft studies the graft and the host belong to different species.

Experiment [2] deals with H3K27me3 in HS-SY-II xenograft. The experiment in a line: PD alterations in HS-SY-II xenograft model (tumor H3K27me3 ELISA, 7 days). Format: in vivo, mice. Conditions: for Mean 2 (H3K27me3 level in tumor, fold change to vehicle): vehicle mean = 1; for Mean Diff. (vehicle vs. treated, tumor H3K27me3): Dunnett's multiple comparisons test; for Significant? (vehicle vs. treated, tumor H3K27me3): Dunnett's test, alpha 0.05. The method, then:
HS-SY-II cells were harvested during mid-log phase growth, and resuspended in Hank balanced salt solution with 50% Matrigel (BD Biosciences). Balb/C-nu mice (Charles River Laboratories Japan) received 1×10^7 cells (0.1 mL cell suspension) subcutaneously in the right flank. Mice carrying tumors of approximately 200 mm^3 (31 days after injection) were sorted into treatment groups with similar mean tumor volumes. Compound A or vehicle (0.5% MC+0.1% Tween-80 in water) was administered at the indicated doses on twice a day for 7 days by oral gavage. Each dose was delivered in a volume of 0.2 mL/20 g mouse (10 mL/kg), and adjusted for the last recorded weight of individual animals. Peripheral blood samples were collected at approximately 5 minutes before and 3 hours after the last dose from Compound A-treated mice. After obtaining plasma samples by centrifugation, the analysis for plasma concentrations of Compound A was conducted by the liquid chromatography-tandem mass spectrometry (LC/MS/MS) method. The UPLC system (Acquity, Waters) equipped with a mass spectrometer (Quattro premier, MICROMASS) was used for quantification of Compound A. The concentrations are plotted (n=5) in FIG. 7A. Each bar represents a mean of plasma concentration in each group.
For FIG. 10D, tumors were snap-frozen in liquid nitrogen. Frozen tumor samples were cut into a 20 mg pieces and placed in 500 μL of ice cold nuclear extraction buffer (10 mM Tris-HCl, 10 mM MgCl2, 25 mM KCl, 1% Triton X-100, 8.6% Sucrose, plus lx Halt Protease inhibitor cocktail (1861281, Thermo Scientific)) and homogenized with a handy micro homogenizer. Nuclei were collected by centrifugation at 600 g for 5 minutes at 4° C. and washed once with ice cold PBS. Supernatant was removed and histones extracted for one hour with 100 μL, of 0.4 N cold sulfuric acid. Extracts were clarified by centrifugation at 10,000 g for 10 minutes at 4° C. and transferred to a fresh microcentrifuge tube containing 1 mL of ice cold acetone. Histones were precipitated at -20° C. for overnight, pelleted by centrifugation at 10,000 g for 10 minutes and resuspended in 100 p1 of water. Histones were quantified using the BCA protein assay (23225, Pierce). The diluted histones were coated on Immulon 4HBX plates (3855, Thermo Scientific) overnight and ELISA was performed. Briefly, after blocking with PBS containing 0.05% Tween 20 and 2% bovine serum albumin (BSA), the plates were incubated with H3K27me3 antibody (#9733, Cell Signaling Technology) or total histone H3 antibody (AB1791, Abcam). The plates were further incubated with horseradish peroxidase conjugated anti-rabbit IgG (#7074, Cell Signaling Technology), followed by incubated with TMB substrate (TMBS-0100-01, BioFx Laboratories). Subsequently, the developed colors in the wells were measured using a plate spectrophotometer (SpectraMax 250, Molecular Devices) at 450 nm (reference wavelength 650 nm). The H3K27me3 levels were adjusted to total histone H3, and expressed as fold changes to vehicle control. The values are plotted (n=6) in FIG. 10D. Each bar represents a mean of the values in each group. […] Histones were extracted and quantified, and the levels of H3K27me3 were analyzed as described above. Trimethylation levels of H3K27 in the tumor are plotted (n=5) in FIG. 7B. Each bar represents a mean ±SEM of the trimethylation level in each group.
For orientation: An ELISA detects its analyte on a solid surface through an enzyme-linked reagent.

Setting [3] is: tumor H3K27me3 across dose groups (FIG. 7B).

In the case of `CCN(c1cc(-c2ccc(CN3CCOCC3)cc2)cc(C(=O)NCc2c(C)cc(C)[nH]c2=O)c1C)C1CCOCC1` [Compound A], in the experiment with SW982 cells, the “ATF3 and EGR1 expression” value is given as “not in SW982”. Further, the “CDKN2A expression in tumor” value with HS-SY-II xenograft was “significantly upregulated”. For the same compound, the tumor volume result in experiment [1] is listed as “dose-related tumor volume decrease”. Besides, the results for the “Mean 2 (H3K27me3 level in tumor, fold change to vehicle)” value in experiment [2] (125 mg/kg oral twice daily 7 days), in experiment [2] (250 mg/kg oral twice daily 7 days) and in experiment [2] (500 mg/kg oral twice daily 7 days) were 0.7, 0.55 and 0.304, respectively. Besides, the “Mean Diff. (vehicle vs. treated, tumor H3K27me3)” value is given as 0.3 in experiment [2] (125 mg/kg); 0.45 in experiment [2] (250 mg/kg); 0.696 in experiment [2] (500 mg/kg, listed as E7435); 0.896 in experiment [2] (500 mg/kg, listed as E7438). Moreover, the “Significant? (vehicle vs. treated, tumor H3K27me3)” value in experiment [2] (125 mg/kg), in experiment [2] (250 mg/kg) and in experiment [2] (500 mg/kg) was “Yes” in each case. Further, the “H3K27me3 levels in tumor tissues” value in experiment [2] (oral twice daily for 7 days) is “dose dependent decrease”. Further, the “Is linear trend significant (P <0.05)?” value in experiment [2] (setting [3]) is given as “Yes”. The “Post test for linear trend: R squared” value in experiment [2] (setting [3]) turned out to be 0.9104. Also, the “Post test for linear trend: Slope” value in experiment [2] (setting [3]) is −0.1119.
